Measurements taken from ChEMBL document CHEMBL3396964, “SAH derived potent and selective EZH2 inhibitors” (Bioorg Med Chem Lett, 2015).
Calls of active or inactive are those of the source. The calls are words filed in the database; no cut-off is given here.

Experiments:
[1] = molecular target: Histone-lysine N-methyltransferase SUV39H2 (Homo sapiens, UniProt Q9H5I1); test: Inhibition of SUV39H2 (unknown origin) at 10 uM by HMT assay
[2] = Permeability across MDCK2 cells; type: ADME, cell-based, Canis lupus familiaris, MDCK-II; conditions: dog, MDCK; read-out: permeability
[3] = molecular target: T1, Histone-lysine N-methyltransferase EHMT2 (Homo sapiens) (UniProt Q96KQ7); test: Inhibition of G9a (unknown origin) at 10 uM by HMT assay
T1 sequence (whole entry): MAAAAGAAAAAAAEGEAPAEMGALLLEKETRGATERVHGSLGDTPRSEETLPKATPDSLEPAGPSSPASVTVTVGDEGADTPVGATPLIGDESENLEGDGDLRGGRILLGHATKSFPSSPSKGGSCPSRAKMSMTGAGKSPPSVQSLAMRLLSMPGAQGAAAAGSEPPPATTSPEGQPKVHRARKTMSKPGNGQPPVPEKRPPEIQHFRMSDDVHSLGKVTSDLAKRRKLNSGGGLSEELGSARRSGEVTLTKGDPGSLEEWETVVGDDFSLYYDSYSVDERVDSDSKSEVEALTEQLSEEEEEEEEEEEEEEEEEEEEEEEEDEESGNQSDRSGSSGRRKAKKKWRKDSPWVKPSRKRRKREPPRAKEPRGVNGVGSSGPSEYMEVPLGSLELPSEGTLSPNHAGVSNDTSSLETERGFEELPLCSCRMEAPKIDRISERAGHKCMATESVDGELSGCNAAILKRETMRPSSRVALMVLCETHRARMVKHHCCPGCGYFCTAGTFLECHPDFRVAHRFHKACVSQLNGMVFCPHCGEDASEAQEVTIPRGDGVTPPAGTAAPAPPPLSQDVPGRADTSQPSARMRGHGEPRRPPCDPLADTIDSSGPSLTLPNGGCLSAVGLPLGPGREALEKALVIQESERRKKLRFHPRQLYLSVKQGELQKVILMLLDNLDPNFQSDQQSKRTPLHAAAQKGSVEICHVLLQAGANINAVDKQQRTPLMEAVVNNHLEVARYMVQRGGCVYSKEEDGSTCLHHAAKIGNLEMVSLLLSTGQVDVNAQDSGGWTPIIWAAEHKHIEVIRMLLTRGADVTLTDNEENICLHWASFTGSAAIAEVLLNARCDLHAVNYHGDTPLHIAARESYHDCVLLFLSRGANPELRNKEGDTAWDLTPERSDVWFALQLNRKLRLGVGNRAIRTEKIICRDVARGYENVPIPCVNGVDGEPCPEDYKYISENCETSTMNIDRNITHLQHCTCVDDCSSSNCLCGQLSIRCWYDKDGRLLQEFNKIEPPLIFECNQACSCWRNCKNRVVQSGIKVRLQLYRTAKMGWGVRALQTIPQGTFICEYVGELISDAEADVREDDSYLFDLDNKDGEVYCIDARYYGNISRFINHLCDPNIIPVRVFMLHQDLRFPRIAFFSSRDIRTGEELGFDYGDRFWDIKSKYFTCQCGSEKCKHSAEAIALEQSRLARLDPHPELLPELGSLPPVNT

[4] = molecular target: Histone-lysine N-methyltransferase SETDB1 (Homo sapiens, UniProt Q15047); conditions: 10 uM
Description: Inhibition of SETDB1 (unknown origin) at 10 uM by HMT assay

[5] = molecular target: N-lysine methyltransferase SMYD2 (Homo sapiens, UniProt Q9NRG4); test: Inhibition of SMYD2 (unknown origin) at 10 uM by HMT assay
[6] = molecular target: T2, Histone-lysine N-methyltransferase EHMT1 (Homo sapiens, UniProt Q9H9B1); test: Inhibition of EHMT1 (unknown origin) by HMT assay
T2 sequence (Q9H9B1 whole entry): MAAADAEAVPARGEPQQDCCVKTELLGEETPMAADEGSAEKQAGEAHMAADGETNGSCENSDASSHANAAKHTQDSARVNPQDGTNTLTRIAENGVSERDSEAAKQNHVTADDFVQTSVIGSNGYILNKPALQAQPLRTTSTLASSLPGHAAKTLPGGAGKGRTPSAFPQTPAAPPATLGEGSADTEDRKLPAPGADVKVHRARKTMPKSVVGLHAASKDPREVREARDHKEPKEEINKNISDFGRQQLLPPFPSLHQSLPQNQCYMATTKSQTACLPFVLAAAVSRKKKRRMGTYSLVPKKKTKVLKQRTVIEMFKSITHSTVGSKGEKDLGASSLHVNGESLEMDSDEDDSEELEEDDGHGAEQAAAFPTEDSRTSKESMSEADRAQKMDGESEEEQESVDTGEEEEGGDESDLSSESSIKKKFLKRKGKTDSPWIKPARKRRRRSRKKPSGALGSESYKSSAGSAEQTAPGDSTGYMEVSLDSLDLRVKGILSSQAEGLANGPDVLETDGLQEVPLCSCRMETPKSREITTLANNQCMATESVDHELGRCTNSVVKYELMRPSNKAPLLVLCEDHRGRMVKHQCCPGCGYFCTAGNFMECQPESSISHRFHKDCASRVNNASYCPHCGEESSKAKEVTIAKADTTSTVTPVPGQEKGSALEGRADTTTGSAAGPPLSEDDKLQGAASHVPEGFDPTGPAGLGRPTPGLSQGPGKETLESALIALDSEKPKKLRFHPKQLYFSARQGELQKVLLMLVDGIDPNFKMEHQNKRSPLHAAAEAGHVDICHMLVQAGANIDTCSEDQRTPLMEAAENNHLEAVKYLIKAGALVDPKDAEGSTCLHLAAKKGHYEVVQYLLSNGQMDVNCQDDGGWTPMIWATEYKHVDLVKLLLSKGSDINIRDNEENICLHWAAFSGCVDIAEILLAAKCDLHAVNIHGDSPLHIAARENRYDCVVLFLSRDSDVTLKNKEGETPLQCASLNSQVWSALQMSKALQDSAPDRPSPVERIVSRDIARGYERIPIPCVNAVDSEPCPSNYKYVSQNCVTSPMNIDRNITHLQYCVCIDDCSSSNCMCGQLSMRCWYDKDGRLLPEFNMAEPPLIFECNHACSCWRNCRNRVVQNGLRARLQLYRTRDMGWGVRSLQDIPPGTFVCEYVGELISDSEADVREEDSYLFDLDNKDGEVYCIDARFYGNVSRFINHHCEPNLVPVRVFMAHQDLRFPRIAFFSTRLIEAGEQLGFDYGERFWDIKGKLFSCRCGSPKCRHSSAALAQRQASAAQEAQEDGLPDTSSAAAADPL

Chain of N-lysine methyltransferase SMYD2 (Q9NRG4 whole entry): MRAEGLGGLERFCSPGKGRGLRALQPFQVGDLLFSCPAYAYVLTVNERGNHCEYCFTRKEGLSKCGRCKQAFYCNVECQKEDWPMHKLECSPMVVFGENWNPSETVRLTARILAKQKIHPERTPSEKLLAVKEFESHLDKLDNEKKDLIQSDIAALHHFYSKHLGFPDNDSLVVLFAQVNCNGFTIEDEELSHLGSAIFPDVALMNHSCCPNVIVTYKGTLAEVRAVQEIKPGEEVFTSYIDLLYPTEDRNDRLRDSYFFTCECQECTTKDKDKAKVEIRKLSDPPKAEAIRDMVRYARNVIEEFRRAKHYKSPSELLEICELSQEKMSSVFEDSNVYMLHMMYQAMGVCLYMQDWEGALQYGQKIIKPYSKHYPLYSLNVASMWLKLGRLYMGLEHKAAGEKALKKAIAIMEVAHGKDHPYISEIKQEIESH
Chain of Histone-lysine N-methyltransferase SUV39H2 (Q9H5I1 whole entry): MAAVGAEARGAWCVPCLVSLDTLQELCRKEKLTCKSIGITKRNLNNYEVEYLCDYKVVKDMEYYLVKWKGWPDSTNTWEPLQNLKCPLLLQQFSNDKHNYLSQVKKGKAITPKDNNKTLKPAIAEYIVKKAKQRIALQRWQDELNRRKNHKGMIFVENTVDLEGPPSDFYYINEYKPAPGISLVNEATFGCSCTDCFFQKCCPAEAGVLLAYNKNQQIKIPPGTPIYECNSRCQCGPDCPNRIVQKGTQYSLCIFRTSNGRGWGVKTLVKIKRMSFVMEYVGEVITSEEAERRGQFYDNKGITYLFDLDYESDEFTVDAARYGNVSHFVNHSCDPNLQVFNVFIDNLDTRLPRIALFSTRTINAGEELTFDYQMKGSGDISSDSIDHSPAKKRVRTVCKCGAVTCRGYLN

Question: Which results are given for `Nc1ncnc2c1ncn2[C@@H]1O[C@H](CSCC[C@H](N)C(=O)NCc2cc(-c3ccccc3)[nH]n2)[C@@H](O)[C@H]1O`?
Answer: inhibition [1]: 20%; Papp [2]: 1 ×10⁻⁶ cm/s; inhibition [3]: 20%; inhibition [4]: inactive; inhibition [5]: inactive; IC50 [6]: > 30 µM
